Like-named read-outs stand apart in the source and are kept apart here.
Legend:
[1] = system: trypomastigote forms of T. cruzi; test: Phenotypic screening against T. cruzi trypomastigotes (Dm28c-Luc, luciferase viability, 24 h); format: cell-based, Trypanosoma cruzi; conditions: for IC50 / IC90: Trypanosoma cruzi, Dm28c-Luc, 24 h; for IC50: read-out: Trypanocidal Activity Trypomastigotes IC50; for IC90: read-out: Trypanocidal Activity Trypomastigotes IC90
Source text: (§1) T. cruzi Dm28c clone genetically modified to express luciferase, kindly provided by Dr. Cristina Henriques from Oswaldo Cruz Institute–Fiocruz, was used in the drug assays. Trypomastigotes were harvested from T. cruzi-infected Vero cultures supernatants at 4th days post-infection (dpi) and used in the phenotypic screening assay. For intracellular amastigotes assays, Vero cells (2D and 3D cultures) were infected at a ratio of 10:1 parasites/host cells.
The phenotypic compound screening was performed using transgenic T. cruzi parasites expressing the firefly luciferase (Dm28c-Luc). Trypomastigotes (1 × 10^6 parasites/well) were treated for 24 h at 37 °C with the pyrazole derivatives and Bz (0.04–100 μM), followed by incubation with luciferin substrate (300 µg/mL) to determine parasite viability through luciferase activity. The concentration that reduces the number of viable parasites by 50% (IC50) or 90% (IC90) was calculated by linear regression. The luminescent signal was read on a Glomax-Multi Detection plate reader (Promega Corporation, Madison, WI, EUA)). At least three independent assays were performed in duplicate.

[2] = system: intracellular amastigotes of T. cruzi; test: Activity against intracellular amastigotes in infected Vero cells (Dm28c-Luc, 72 h); format: cell-based, Trypanosoma cruzi; conditions: for Intracellular Amastigotes SI: CC50 of Vero cells/IC50 of intracellular amastigote; for IC50 / IC90: Trypanosoma cruzi; for IC50: Vero; for IC90: read-out: Trypanocidal Activity Intracellular Amastigotes IC90
Source text: as §1
The effect of the pyrazole derivatives against intracellular amastigotes was also evaluated after 72 h treatment (37 °C) with compound concentrations ranging from 0.04–100 µM [13]. Parasite viability, measured by luminescent signal, was determined after luciferin (300 µg/mL) addition. IC50 and IC90 values were calculated by linear regression. Selectivity index (SI) was calculated as the ratio of the CC50 to IC50 values. The non-toxic concentration of DMSO (less than 1% v/v) was used in all assays. A minimum of three independent assays was carried out in duplicate.

[3] = Cytotoxicity in vitro assay (ATP, CellTiter Glo, 72 h); format: cell-based; conditions: African green monkey, Vero cells
Description: Vero cells, obtained from the Rio de Janeiro Cell Bank (BCRJ code 0245), were cultured in RPMI-1640 supplemented with 10% fetal bovine serum (FBS) and 1 mM L-glutamine, as previously described. Vero cells were used for drug screening assays and to obtain trypomastigote forms of T. cruzi.
Vero cells were used as a cellular model to analyze the toxic effect of pyrazole derivatives, series 1(a–l), 2(a–l), 3(a–n), 4(a–c), and 5(a–c), and Benznidazole (Bz) on mammalian cells. Briefly, the cells, plated on 96-well white opaque microplate (1.5 × 10^4 cells/well), were treated for 72 h at 37 °C with a wide range concentration (500–1.95 µM) of the pyrazole derivatives. The cell viability was determined by measuring ATP levels using the CellTiter Glo Kit (Promega Corporation, Madison, WI, EUA) followed by reading the luminescent signal on the Glomax-Multi Detection plate reader (Promega Corporation, Madison, WI, EUA)). All treatments and controls were performed at a low concentration of DMSO (≤1%). The 50% cytotoxic concentration values (CC50; the concentration of the compound that reduces 50% of the cell viability) were estimated by linear regression analysis. Three independent assays were performed in duplicate.

[4] = 72 h, Vero cells infected with Dm28c-Luc, 72 h, read-out: Trypanocidal Activity Intracellular Amastigotes IC50
[5] = negative log of the IC50 value in molar, read-out: Intracellular Amastigotes pIC50 (converted)
[6] = Vero cells infected with Dm28c-Luc, 72 h

| SMILES | IC50 [1] | Intracellular Amastigotes SI [2] | IC50 [2, 4] | IC50 [2, 5] | IC90 [2, 6] | CC50 at 72 h [3] | melting point | Trypomastigotes SI ([1]; CC50 of Vero cells/IC50 of trypomastigote) | IC90 [1] | fold drop in activity on moving Cl or Br to the meta position ([2]; 3b compared to 3g, 3k compared to 3j) |
| --- | --- | --- | --- | --- | --- | --- | --- | --- | --- | --- |
| Cc1cc(Cl)ccc1-n1cc(C2=NCCN2)cn1 [Compound 3n, 1-(4-chloro-2-methylphenyl)-4-(4,5-dihydro-1H-imidazol-2-yl)-1H-pyrazole] | > 100 µM | 13.86 | 24.7 ± 3.42 µM | 24.5 µM | 85.7 ± 5.03 µM | 342 ± 30 µM | 174 to 176 °C |  |  |  |
| c1ccc(-n2cc(C3=NCCN3)cn2)cc1 [Compound 3a, 4-(4,5-dihydro-1H-imidazol-2-yl)-1-phenyl-1H-pyrazole] | > 100 µM | >5.44 | 91.8 ± 2.03 µM | 93.3 µM | > 100 µM | > 500 µM | 149 to 150 °C |  |  |  |
| Clc1ccc(-n2cc(C3=NCCN3)cn2)cc1Cl [Compound 3e, 1-(3,4-dichlorophenyl)-4-(4,5-dihydro-1H-imidazol-2-yl)-1H-pyrazole] | 64.9 ± 2.85 µM | 6.26 | 76.5 ± 8.79 µM | 75.9 µM | > 100 µM | 480 ± 21.7 µM | 185 to 186 °C | 7.39 | 93.74 ± 0.73 µM |  |
| CC1CN=C(c2cnn(-c3cc(Cl)cc(Cl)c3)c2N)N1 (stereo not shown) [Compound 5b, 5-amino-1-(3,5-dichlorophenyl)-4-(4-(5)-methyl-4,5-dihydro-1H-imidazol-2-yl)-1H-pyrazole] | > 100 µM | >15.17 | 33 ± 8.84 µM | 33.1 µM | > 100 µM | > 500 µM | 189 to 192 °C |  | > 100 µM |  |
| Clc1cccc(Cl)c1-n1cc(C2=NCCN2)cn1 [Compound 3f, 1-(2,6-dichlorophenyl)-4-(4,5-dihydro-1H-imidazol-2-yl)-1H-pyrazole] | > 100 µM | >6 | 82 ± 2.52 µM | 81.3 µM | > 100 µM | > 500 µM | 221 to 223 °C |  |  |  |
| Cc1nn(-c2ccc(Cl)c(Cl)c2)c(N)c1C1=NCCN1 [Compound 4c, 5-amino-1-(3,4-dichlorophenyl)-3-methyl-4-(4,5-dihydro-1H-imidazol-2-yl)-1H-pyrazole] | > 100 µM | 3.78 | 93.8 ± 16.4 µM | 93.3 µM | > 100 µM | 355 ± 17.7 µM | 221 to 224 °C |  | > 100 µM |  |
| Fc1ccc(-n2cc(C3=NCCN3)cn2)cc1 [Compound 3h, 4-(4,5-dihydro-1H-imidazol-2-yl)-1-(4-fluorophenyl)-1H-pyrazole] | > 100 µM |  | 64.5 ± 3.81 µM | 64.6 µM | > 100 µM | > 500 µM | 210 to 212 °C |  |  |  |
| Cc1nn(-c2cccc(Cl)c2)c(N)c1C1=NCCN1 [Compound 4a, 5-amino-1-(3-chlorophenyl)-3-methyl-4-(4,5-dihydro-1H-imidazol-2-yl)-1H-pyrazole] | > 100 µM |  | > 100 µM | > 100 µM | > 100 µM | > 500 µM | 116 to 120 °C |  | > 100 µM |  |
| Clc1ccc(-n2cc(C3=NCCN3)cn2)c(Cl)c1 [Compound 3c, 1-(2,4-dichlorophenyl)-4-(4,5-dihydro-1H-imidazol-2-yl)-1H-pyrazole] | > 100 µM | 7.21 | 56.6 ± 2.52 µM | 56.2 µM | 94.6 ± 3.61 µM | 409 ± 16.2 µM | 110 to 111 °C |  |  |  |
| NC(=O)c1cnn(-c2cccc(Cl)c2Cl)c1 [Compound 1l, 1-(2,3-dichlorophenyl)-1H-pyrazole-4-carboxamide] |  |  |  | > 50.1 µM |  |  | 220 to 224 °C |  |  |  |
| NC(=O)c1cnn(-c2cccc(Cl)c2)c1 [Compound 1b, 1-(3-chlorophenyl)-1H-pyrazole-4-carboxamide] |  |  |  | > 50.1 µM |  |  | 202 to 204 °C |  |  |  |
| COc1ccc(-n2cc(C3=NCCN3)cn2)cc1 [Compound 3l, 4-(4,5-dihydro-1H-imidazol-2-yl)-1-(4-methoxyphenyl)-1H-pyrazole] | > 100 µM | >7 | 71.8 ± 2.71 µM | 72.4 µM | > 100 µM | > 500 µM | 196 to 197 °C |  |  |  |
| Clc1cccc(-n2cc(C3=NCCN3)cn2)c1 [Compound 3b, 1-(3-chlorophenyl)-4-(4,5-dihydro-1H-imidazol-2-yl)-1H-pyrazole] | > 100 µM | 9.48 | 28.2 ± 1.81 µM | 28.2 µM | 86.6 ± 5.55 µM | 267 ± 28.1 µM | 120 to 124 °C |  |  | five |
| CC1CN=C(c2cnn(-c3ccc(Cl)c(Cl)c3)c2N)N1 (stereo not shown) [Compound 5c, 5-amino-1-(3,4-dichlorophenyl)-4-(-4(5)-methyl-4,5-dihydro-1H-imidazol-2-yl)-1H-pyrazole] | > 100 µM |  | 34.3 ± 4.24 µM | 34.7 µM | > 100 µM | 343 ± 37 µM | 191 to 193 °C |  | > 100 µM |  |
| NC(=O)c1cnn(-c2cc(Cl)cc(Cl)c2)c1N [Compound 2d, 5-amino-1-(3,5-dichlorophenyl)-1H-pyrazole-4-carboxamide] |  |  |  | > 70.8 µM |  |  | 184 to 186 °C |  |  |  |
| NC(=O)c1cnn(-c2ccccc2)c1 [Compound 1a, 1-phenyl-1H-pyrazole-4-carboxamide] |  |  |  | > 50.1 µM |  |  | 224 to 225 °C |  |  |  |
| NC(=O)c1cnn(-c2ccc(Cl)c(Cl)c2)c1N [Compound 2e, 5-amino-1-(3,4-dichlorophenyl)-1H-pyrazole-4-carboxamide] |  |  |  | > 70.8 µM |  |  | 204 to 212 °C |  |  |  |
| NC(=O)c1cnn(-c2ccc(Cl)cc2)c1 [Compound 1f, 1-(4-chlorophenyl)-1H-pyrazole-4-carboxamide] |  |  |  | > 50.1 µM |  |  | 234 to 236 °C |  |  |  |

Reference: PMC8587750, “Structural Optimization and Biological Activity of Pyrazole Derivatives: Virtual Computational Analysis, Recovery Assay and 3D Culture Model as Potential Predictive Tools of Effectiveness against Trypanosoma cruzi” (Molecules, 2021)
